{"source": "ChEMBL document CHEMBL6087397", "about": "“H2S-releasing oridonin derivatives with improved antitumor activity by inhibiting the PI3K/AKT pathway” (Bioorg Med Chem, 2024)", "key": {"MIA PaCa-2 [1]": {"tested_on": "MIA PaCa-2", "test": "Induction of apoptosis in human MIA PaCa-2 cells assessed as upregulation of cleaved caspase-9 expression at 1.25 to 5.0 uM incubated for 48 hrs by Western blotting analysis", "assay_type": "functional, cell-based", "conditions": "dose 1.25-5 µM"}, "[2]": {"test": "Toxicity in female BALB/c mouse xenografted with mouse 4T1 cells assessed as morphological change in lung at 10 mg/kg, ip administered every 2 days by H and E staining based analysis", "assay_type": "organism-based", "conditions": "in vivo, 48 h"}, "MCF7 [3]": {"tested_on": "MCF7", "test": "Induction of mitochondrial apoptosis pathway in human MCF7 cells assessed as downregulation of pro-caspase-9 expression at 1.25 to 5.0 uM incubated for 48 hrs by Western blotting analysis", "assay_type": "functional, cell-based", "conditions": "dose 1.25-5 µM"}, "MCF7 [4]": {"tested_on": "MCF7", "test": "Induction of mitochondrial apoptosis pathway in human MCF7 cells assessed as downregulation of pro-caspase-3 expression at 1.25 to 5.0 uM incubated for 48 hrs by Western blotting analysis", "assay_type": "functional, cell-based", "conditions": "dose 1.25-5 µM"}, "MIA PaCa-2 [5]": {"tested_on": "MIA PaCa-2", "test": "Induction of cell cycle arrest in human MIA PaCa-2 cells assessed as increase in accumulation of cells at S phase at 5.0 uM incubated for 48 hrs by PI staining based flow cytometric analysis (reference value: 9.38%)", "assay_type": "functional"}, "MIA PaCa-2 [6]": {"tested_on": "MIA PaCa-2", "test": "Induction of apoptosis in human MIA PaCa-2 cells assessed as increase in Bax/Bcl-2 ratio at 1.25 to 5.0 uM incubated for 48 hrs by Western blotting analysis", "assay_type": "functional, cell-based", "conditions": "dose 1.25-5 µM"}, "PANC-1": {"tested_on": "PANC-1", "test": "Antiproliferative activity against human PANC-1 cells assessed as inhibition of cell proliferation incubated for 48 hrs by CCK-8 assay", "assay_type": "functional, cell-based", "conditions": "PANC-1, 48 h"}, "MIA PaCa-2 [7]": {"tested_on": "MIA PaCa-2", "test": "Induction of mitochondrial dysfunction in human MIA PaCa-2 cells assessed as decrease in MMP level at 2.5 to 5.0 uM by measuring green fluorescence incubated for 48 hrs by JC-1 staining based flow cytometric analysis", "assay_type": "functional, cell-based", "conditions": "dose 2.5-5 µM"}, "MIA PaCa-2 [8]": {"tested_on": "MIA PaCa-2", "test": "Induction of mitochondrial dysfunction in human MIA PaCa-2 cells assessed as decrease in ATP level incubated for 48 hrs by ATP assay kit", "assay_type": "functional, cell-based", "conditions": "dose 2.5-10 µM"}, "4T1": {"tested_on": "4T1", "test": "Antitumor activity against mouse 4T1 cells xenografted in female BALB/c mouse assessed as tumor inhibition rate at 10 mg/kg, ip administered every 2 days relative to control", "assay_type": "functional", "conditions": "4T1, 48 h, read-out: TGI"}, "MIA PaCa-2 [9]": {"tested_on": "MIA PaCa-2", "test": "Induction of apoptosis in human MIA PaCa-2 cells assessed as early apoptotic cells at 10 uM incubated for 48 hrs by Annexin V-FITC/PI staining based flow cytometric analysis (reference value: 7.3%)", "assay_type": "functional"}, "MIA PaCa-2 [10]": {"tested_on": "MIA PaCa-2", "test": "Inhibition of cell invasion in human MIA PaCa-2 cells assessed as decrease in number of invading cells at 0.5 to 1.0 uM incubated for 48 hrs by crystal violet staining based transwell microscopic analysis relative to control", "assay_type": "functional", "conditions": "dose 0.5-1 µM"}, "MCF7 [11]": {"tested_on": "MCF7", "test": "Induction of apoptosis in human MCF7 cells assessed as increase in cleaved PARP level at 1.25 to 5.0 uM incubated for 48 hrs by Western blotting analysis", "assay_type": "functional, cell-based", "conditions": "dose 1.25-5 µM"}, "MCF7 [12]": {"tested_on": "MCF7", "test": "Induction of cell cycle arrest in human MCF7 cells assessed as increase in accumulation of cells at G2/M phase at 10 uM incubated for 48 hrs by PI staining based flow cytometric analysis (reference value: 6.7%)", "assay_type": "functional"}, "[13]": {"test": "Toxicity in female BALB/c mouse xenografted with mouse 4T1 cells assessed as morphological change in liver at 10 mg/kg, ip administered every 2 days by H and E staining based analysis", "assay_type": "organism-based", "conditions": "in vivo, 48 h"}, "MCF7 [14]": {"tested_on": "MCF7", "test": "Inhibition of cell migration in human MCF7 cells assessed as wider scratch areas incubated for 48 hrs by scratch assay", "assay_type": "functional, cell-based", "conditions": "dose 0.5-1 µM"}, "[15]": {"test": "Toxicity in female BALB/c mouse xenografted with mouse 4T1 cells assessed as morphological change in heart at 10 mg/kg, ip administered every 2 days by H and E staining based analysis", "assay_type": "organism-based", "conditions": "in vivo, 48 h"}, "MIA PaCa-2 [16]": {"tested_on": "MIA PaCa-2", "test": "Inhibition of AKT expression in human MIA PaCa-2 cells at 1.25 to 5.0 uM incubated for 48 hrs by Western blotting analysis", "assay_type": "functional, cell-based", "conditions": "dose 1.25-5 µM"}, "MCF7 [17]": {"tested_on": "MCF7", "test": "Induction of mitochondrial dysfunction in human MCF7 cells assessed as decrease in MMP level at 2.5 to 5.0 uM by measuring green fluorescence incubated for 48 hrs by JC-1 staining based flow cytometric analysis", "assay_type": "functional, cell-based", "conditions": "dose 2.5-5 µM"}, "[18]": {"test": "Toxicity in female BALB/c mouse xenografted with mouse 4T1 cells assessed as morphological change in kidney at 10 mg/kg, ip administered every 2 days by H and E staining based analysis", "assay_type": "organism-based", "conditions": "in vivo, 48 h"}, "MCF7 [19]": {"tested_on": "MCF7", "test": "Induction of apoptosis in human MCF7 cells assessed as increase in Cyt-C level at 1.25 to 5.0 uM incubated for 48 hrs by Western blotting analysis", "assay_type": "functional, cell-based", "conditions": "dose 1.25-5 µM"}, "MIA PaCa-2 [20]": {"tested_on": "MIA PaCa-2", "test": "Induction of apoptosis in human MIA PaCa-2 cells assessed as increase in fluorescence intensity at 2.5 uM incubated for 48 hrs by Hoechst 33342 staining based fluorescence microscopic analysis", "assay_type": "functional, cell-based"}, "MCF7 [21]": {"tested_on": "MCF7", "test": "Induction of cell cycle arrest in human MCF7 cells assessed as increase in accumulation of cells at G2/M phase at 5 uM incubated for 48 hrs by PI staining based flow cytometric analysis (reference value: 6.7%)", "assay_type": "functional"}, "[22]": {"test": "Toxicity in female BALB/c mouse xenografted with mouse 4T1 cells assessed as change in body weight at 10 mg/kg, ip administered every 2 days", "assay_type": "organism-based", "conditions": "in vivo, 48 h"}, "MCF7 [23]": {"tested_on": "MCF7", "test": "Inhibition of colony formation in human MCF7 cells assessed as reduction in number of colonies at 1.0 to 2.0 uM incubated for […] by crystal violet staining based microscopic analysis", "assay_type": "functional, cell-based", "conditions": "dose 1-2 µM"}, "MCF7 [24]": {"tested_on": "MCF7", "test": "Induction of apoptosis in human MCF7 cells assessed as increase in nuclear fragmentation at 2.5 uM incubated for 48 hrs by Hoechst 33342 staining based fluorescence microscopic analysis", "assay_type": "functional, cell-based"}, "MIA PaCa-2 [25]": {"tested_on": "MIA PaCa-2", "test": "Inhibition of colony formation in human MIA PaCa-2 cells assessed as reduction in number of colonies at 0.5 to 1.0 uM incubated for […] by crystal violet staining based microscopic analysis", "assay_type": "functional, cell-based", "conditions": "dose 0.5-1 µM"}, "A549": {"tested_on": "A549", "test": "Antiproliferative activity against human A549 cells assessed as inhibition of cell proliferation incubated for 48 hrs by CCK-8 assay", "assay_type": "functional, cell-based", "conditions": "A549, 48 h"}, "MCF7 [26]": {"tested_on": "MCF7", "test": "Induction of apoptosis in human MCF7 cells assessed as upregulation of Bax/Bcl-2 ratio at 1.25 to 5.0 uM incubated for 48 hrs by Western blotting analysis", "assay_type": "functional, cell-based", "conditions": "dose 1.25-5 µM"}, "[27]": {"test": "Toxicity in female BALB/c mouse xenografted with mouse 4T1 cells assessed as morphological change in spleen at 10 mg/kg, ip administered every 2 days by H and E staining based analysis", "assay_type": "organism-based", "conditions": "in vivo, 48 h"}, "MIA PaCa-2 [28]": {"tested_on": "MIA PaCa-2", "test": "Induction of apoptosis in human MIA PaCa-2 cells assessed as upregulation of cleaved caspase-3 expression at 1.25 to 5.0 uM incubated for 48 hrs by Western blotting analysis", "assay_type": "functional, cell-based", "conditions": "dose 1.25-5 µM"}, "MIA PaCa-2 [29]": {"tested_on": "MIA PaCa-2", "test": "Induction of apoptosis in human MIA PaCa-2 cells assessed as upregulation of cleaved PARP expression at 1.25 to 5.0 uM incubated for 48 hrs by Western blotting analysis", "assay_type": "functional, cell-based", "conditions": "dose 1.25-5 µM"}, "MCF7 [30]": {"tested_on": "MCF7", "test": "Induction of mitochondrial dysfunction in human MCF7 cells assessed as decrease in ATP level incubated for 48 hrs by ATP assay kit", "assay_type": "functional, cell-based", "conditions": "dose 2.5-10 µM"}, "MIA PaCa-2 [31]": {"tested_on": "MIA PaCa-2", "test": "Antiproliferative activity against human MIA PaCa-2 cells assessed as inhibition of cell proliferation incubated for 48 hrs by CCK-8 assay", "assay_type": "functional, cell-based", "conditions": "MIA PaCa-2, 48 h"}}, "note": "Calls of active or inactive are those of the source. The rule behind the calls is not given here.", "data": [{"smiles": "C=C1C(=O)[C@]23[C@H](OC(=O)c4ccc(N=C=S)cc4)[C@H]1CC[C@H]2[C@@]12CO[C@]3(O)[C@@H](O)[C@@H]1C(C)(C)CC[C@@H]2O", "values": [{"measurement": "Activity", "setting": "MIA PaCa-2 [1]", "result": "Active"}, {"measurement": "Activity", "setting": "[2]", "result": "Non-toxic"}, {"measurement": "Activity", "setting": "MCF7 [3]", "result": "Active"}, {"measurement": "Activity", "setting": "MCF7 [4]", "result": "Active"}, {"measurement": "Activity", "setting": "MIA PaCa-2 [5]", "result": 46.9, "unit": "%"}, {"measurement": "Activity", "setting": "MIA PaCa-2 [6]", "result": "Active"}, {"measurement": "IC50", "setting": "PANC-1", "result": 17.7, "unit": "µM"}, {"measurement": "Activity", "setting": "MIA PaCa-2 [7]", "result": "Active"}, {"measurement": "Activity", "setting": "MIA PaCa-2 [8]", "result": "Dose-dependent-effect"}, {"measurement": "inhibition in vivo at 10 mg/kg", "setting": "4T1", "result": 34.3, "unit": "%"}, {"measurement": "Activity", "setting": "MIA PaCa-2 [9]", "result": 56.8, "unit": "%"}, {"measurement": "inhibition (INH)", "setting": "MIA PaCa-2 [10]", "result": "~70", "unit": "%"}, {"measurement": "Activity", "setting": "MCF7 [11]", "result": "Active"}, {"measurement": "Activity", "setting": "MCF7 [12]", "result": 14, "unit": "%"}, {"measurement": "Activity", "setting": "[13]", "result": "Non-toxic"}, {"measurement": "inhibition", "setting": "MCF7 [14]", "result": "Dose-dependent-effect"}, {"measurement": "Activity", "setting": "[15]", "result": "Non-toxic"}, {"measurement": "inhibition", "setting": "MIA PaCa-2 [16]", "result": "Active"}, {"measurement": "Activity", "setting": "MCF7 [17]", "result": "Active"}, {"measurement": "Activity", "setting": "[18]", "result": "Non-toxic"}, {"measurement": "Activity", "setting": "MCF7 [19]", "result": "Active"}, {"measurement": "Activity", "setting": "MIA PaCa-2 [20]", "result": "Active"}, {"measurement": "Activity", "setting": "MCF7 [21]", "result": 11.5, "unit": "%"}, {"measurement": "Activity", "setting": "[22]", "result": "Non-toxic"}, {"measurement": "inhibition", "setting": "MCF7 [23]", "result": "Active"}, {"measurement": "Activity", "setting": "MCF7 [24]", "result": "Active"}, {"measurement": "inhibition", "setting": "MIA PaCa-2 [25]", "result": "Active"}, {"measurement": "IC50", "setting": "A549", "result": 17.8, "unit": "µM"}, {"measurement": "Activity", "setting": "MCF7 [26]", "result": "Active"}, {"measurement": "Activity", "setting": "[27]", "result": "Non-toxic"}, {"measurement": "Activity", "setting": "MIA PaCa-2 [28]", "result": "Active"}, {"measurement": "Activity", "setting": "MIA PaCa-2 [29]", "result": "Active"}, {"measurement": "Activity", "setting": "MCF7 [30]", "result": "Dose-dependent-effect"}, {"measurement": "IC50", "setting": "MIA PaCa-2 [31]", "result": 2.14, "unit": "µM"}]}]}
